From US20100129434A1, “COMPOSITIONS AND METHODS FOR THE TREATMENT OF MUCORMYCOSIS AND OTHER FUNGAL DISEASES” (priority 2006, published 2010)
Where two headings read alike, the source gives them in different places.

Experiments:
[1] = tested on: Mucor spp.; assay: Deferasirox susceptibility testing (MIC/MFC), Mucor clinical isolates; format: cell-based
Experimental: (§1) Minimum inhibitory concentration (MIC) and minimum fungicidal concentration (MFC) were determined for deferasirox by the method of Espinel-Ingroff using R. oryzae spores starved for iron (Espinel-Ingroff, (2001), supra). Cidality was defined as a <4-fold difference between MIC and MFC.
(§2) We next determined the deferasirox susceptibilities of multiple clinical isolates of Mucorales (Table 3). The MIC9OS of deferasirox against Mucor, non-oryzae Rhizopus spp., and R. oryzae were 3.12 to 6.25 μg/ml. MFCs were similar to MICs, and deferasirox was cidal for 28/29 (97%) of isolates. Of note, slight growth was seen within the first twelve hours even at extremely high concentrations of deferasirox. […] Furthermore, the MICs and MFCs of deferasirox against these isolates were well below clinically achievable peak (˜38 μg/ml) and trough serum levels (˜17 μg/ml) of the drug at steady state when administered at the FDA-approved starting dose (20 mg/kg/d).

[2] = tested on: R. oryzae; assay: Deferasirox susceptibility testing (MIC/MFC), R. oryzae isolates; format: cell-based, Rhizopus oryzae; conditions: for MFC / MIC: Rhizopus arrhizus; for MFC: read-out: MFC; for MIC: read-out: MIC
Experimental: as §1, §2

O=C(O)c1ccc(-n2nc(-c3ccccc3O)nc2-c2ccccc2O)cc1 [Deferasirox, 4-[3,5-Bis(2-hydroxyphenyl)-1H-1,2,4-triazol-1-yl]-benzoic acid]
6.25 µg/mL: MFC90 ([2]; R. oryzae MIC90/MFC90, 48 h) | MFC ([2]; 24 h, R. oryzae 99-133, 24 h) | MIC ([2]; 24 h, R. oryzae 99-133, 24 h)
N (Cidal = MFC/MIC ≦ 4): Fungicidal? ([2]; R. oryzae type 1 NRRL13440, 24 h) | Fungicidal? ([2]; R. oryzae type 1 NRRL13440, 48 h)
1.56 µg/mL: MFC ([2]; 24 h, R. oryzae 99-892, 24 h) | MIC ([2]; 24 h, R. oryzae 99-892, 24 h)
0.78 µg/mL: MFC ([1]; Mucor ramosissumus 97-1192, 24 h, read-out: MFC) | MIC ([1]; Mucor ramosissumus 97-1192, 24 h, read-out: MIC) | MFC ([1]; Mucor ramosissumus 97-1192, 48 h, read-out: MFC) | MIC ([1]; Mucor ramosissumus 97-1192, 48 h, read-out: MIC)
Y (Cidal = MFC/MIC ≦ 4): Fungicidal? ([1]; Mucor 97-1083, 24 h) | Fungicidal? ([1]; Mucor 97-1083, 48 h) | Fungicidal? ([1]; Mucor ramosissumus 97-1192, 24 h) | Fungicidal? ([1]; Mucor ramosissumus 97-1192, 48 h) | Fungicidal? ([1]; Mucor sp. 99-932, 24 h) | Fungicidal? ([1]; Mucor sp. 99-932, 48 h) | Fungicidal? ([1]; Mucor spp. MIC90/MFC90, 24 h) | Fungicidal? ([1]; Mucor spp. MIC90/MFC90, 48 h) | Fungicidal? ([2]; R. oryzae 99-133, 24 h) | Fungicidal? ([2]; R. oryzae 99-133, 48 h) | Fungicidal? ([2]; R. oryzae 99-880, 24 h) | Fungicidal? ([2]; R. oryzae 99-880, 48 h) | Fungicidal? ([2]; R. oryzae 99-892, 24 h) | Fungicidal? ([2]; R. oryzae 99-892, 48 h) | Fungicidal? ([2]; R. oryzae 729-02, 24 h) | Fungicidal? ([2]; R. oryzae 729-02, 48 h) | Fungicidal? ([2]; R. oryzae HUMC 02, 24 h) | Fungicidal? ([2]; R. oryzae HUMC 02, 48 h) | Fungicidal? ([2]; R. oryzae MIC90/MFC90, 24 h) | Fungicidal? ([2]; R. oryzae MIC90/MFC90, 48 h) | Fungicidal? ([2]; R. oryzae pyr17 pyrG−/−, 24 h) | Fungicidal? ([2]; R. oryzae pyr17 pyrG−/−, 48 h) | Fungicidal? ([2]; R. oryzae type I NRRL 6059, 24 h) | Fungicidal? ([2]; R. oryzae type I NRRL 6059, 48 h) | Fungicidal? ([2]; R. oryzae type I NRRL 10206, 24 h) | Fungicidal? ([2]; R. oryzae type I NRRL 10206, 48 h) | Fungicidal? ([2]; R. oryzae type I NRRL11823, 24 h) | Fungicidal? ([2]; R. oryzae type I NRRL11823, 48 h) | Fungicidal? ([2]; R. oryzae type I NRRL13142, 24 h) | Fungicidal? ([2]; R. oryzae type I NRRL13142, 48 h) | Fungicidal? ([2]; R. oryzae type I NRRL13533, 24 h) | Fungicidal? ([2]; R. oryzae type I NRRL13533, 48 h) | Fungicidal? ([2]; R. oryzae type I NRRL 21251, 24 h) | Fungicidal? ([2]; R. oryzae type I NRRL 21251, 48 h) | Fungicidal? ([2]; R. oryzae type I NRRL21396, 24 h) | Fungicidal? ([2]; R. oryzae type I NRRL21396, 48 h) | Fungicidal? ([2]; R. oryzae type I NRRL21409, 24 h) | Fungicidal? ([2]; R. oryzae type I NRRL21409, 48 h) | Fungicidal? ([2]; R. oryzae type II NRRL 18148, 24 h) | Fungicidal? ([2]; R. oryzae type II NRRL 18148, 48 h) | Fungicidal? ([2]; R. oryzae type II NRRL 21446, 24 h) | Fungicidal? ([2]; R. oryzae type II NRRL 21446, 48 h) | Fungicidal? ([2]; R. oryzae type II NRRL 21447, 24 h) | Fungicidal? ([2]; R. oryzae type II NRRL 21447, 48 h) | Fungicidal? ([2]; R. oryzae type II NRRL 21477, 24 h) | Fungicidal? ([2]; R. oryzae type II NRRL 21477, 48 h) | Fungicidal? ([2]; R. oryzae type II NRRL 21628, 24 h) | Fungicidal? ([2]; R. oryzae type II NRRL 21628, 48 h) | Fungicidal? ([2]; R. oryzae type II NRRL 21789, 24 h) | Fungicidal? ([2]; R. oryzae type II NRRL 21789, 48 h) | Fungicidal? ([2]; R. orzae type II 10206, 24 h) | Fungicidal? ([2]; R. orzae type II 10206, 48 h)
3.12 µg/mL: MFC90 ([1]; Mucor spp. MIC90/MFC90, 24 h) | MFC90 ([1]; Mucor spp. MIC90/MFC90, 48 h) | MIC90 ([1]; Mucor, 24 h) | MFC ([1]; Mucor, 24 h, Mucor 97-1083) | MIC ([1]; Mucor, 24 h, Mucor 97-1083) | MFC ([1]; Mucor, 24 h, Mucor sp. 99-932) | MIC ([1]; Mucor, 24 h, Mucor sp. 99-932) | MIC90 ([1]; Mucor, 48 h) | MFC ([1]; Mucor, 48 h, Mucor 97-1083) | MIC ([1]; Mucor, 48 h, Mucor 97-1083) | MFC ([1]; Mucor, 48 h, Mucor sp. 99-932) | MIC ([1]; Mucor, 48 h, Mucor sp. 99-932) | MFC ([2]; 24 h, R. oryzae 99-880, 24 h) | MIC ([2]; 24 h, R. oryzae 99-880, 24 h)
12.5 µg/mL: MFC90 ([2]; R. oryzae MIC90/MFC90, 24 h) | MFC ([2]; 24 h, R. oryzae 729-02, 24 h) | MIC ([2]; 24 h, R. oryzae 729-02, 24 h)
